This assay deals with BRD4 (Homo sapiens, UniProt O60885). Briefly: Time resolved fluorescence resonance energy transfer (TR-FRET) binding assay, bromodomain BRD4. The settings on record: one of the FRET assays described; read-out: FRET BRD4 IC50.
On to `COc1nccc2c3ncc(-c4c(C)nnn4C)cc3n(C(c3c(F)cccc3F)C3CCOCC3)c12` (racemic) [Example 27, 8-[(2,6-Difluorophenyl)(oxan-4-yl)methyl]-5-(dimethyl-1H-1,2,3-triazol-5-yl)-10-methoxy-3,8,11-triazatricyclo[7.4.0.0^2,^7]trideca-1(13),2(7),3,5,9,11-hexaene], for which the IC50 was less than 10 nM.
Next, `[2H]C([2H])([2H])c1nnn(C)c1-c1cnc2c3cnc(S(C)(=O)=O)cc3n([C@H](c3ccccc3F)C3CCOCC3)c2c1` [Example 245, 8-[(S)-(2-Fluorophenyl)(oxan-4-yl)methyl]-11-methanesulfonyl-5-[4-(^2H3)methyl-1-methyl-1H-1,2,3-triazol-5-yl]-3,8,12-triazatricyclo[7.4.0.0^2,^7]trideca-1(13),2(7),3,5,9,11-hexaene]: less than 10 nM.
With `CC(=O)c1cc2c(cn1)c1ncc(-c3c(C)nnn3C)cc1n2[C@H](c1ccc(F)cc1)C1CCOCC1` [Example 337] the figure was less than 10 nM; with `Cc1noc(C)c1-c1cnc2c3ccc(S(C)(=O)=O)nc3n([C@H](c3ccccc3)C3CCOCC3)c2c1` [Example 144, 5-(Dimethyl-1,2-oxazol-4-yl)-11-methanesulfonyl-8-[(S)-oxan-4-yl(phenyl)methyl]-3,8,10-triazatricyclo[7.4.0.0^2,^7]trideca-1(13),2(7),3,5,9,11-hexaene], less than 10 nM.
Next, `Cc1nnn(C)c1-c1cnc2c3c(S(C)(=O)=O)nccc3n([C@H](c3ccccc3)C3CCOCC3)c2c1` [Example 33, 5-(Dimethyl-1H-1,2,3-triazol-5-yl)-13-methanesulfonyl-8-[(S)-oxan-4-yl(phenyl)methyl]-3,8,12-triazatricyclo[7.4.0.0^2,^7]trideca-1(13),2(7),3,5,9,11-hexaene]: less than 1 nM.
Regarding `[2H]C([2H])([2H])c1nnn(C)c1-c1cnc2c3cnc(Cl)cc3n(C(c3ncccc3F)C3CCOCC3)c2c1` (single isomer, unassigned) [Example 320], the concentration for half-maximal inhibition (IC50) is less than 1500 nM.
With `Cc1nnn(C)c1-c1cnc2c3cnc(N4CCN(C5CC5)CC4)nc3n([C@H](c3ccccc3)C3CCOCC3)c2c1` [Example 157, 11-(4-Cyclopropylpiperazin-1-yl)-5-(dimethyl-1H-1,2,3-triazol-5-yl)-8-[(S)-oxan-4-yl(phenyl)methyl]-3,8,10,12-tetraazatricyclo[7.4.0.0^2,^7]trideca-1(9),2(7),3,5,10,12-hexaene] the figure was less than 10 nM; with `Cc1nnn(C)c1-c1cnc2c3ccc(Cl)nc3n([C@H](c3ccccc3)C3CCOCC3)c2c1` [Example 14, 11-Chloro-5-(dimethyl-1H-1,2,3-triazol-5-yl)-8-[(S)-oxan-4-yl(phenyl)methyl]-3,8,10-triazatricyclo[7.4.0.0^2,^7]trideca-1(9),2(7),3,5,10,12-hexaene], less than 10 nM.
With `[2H]C([2H])([2H])c1nnn(C)c1-c1cnc2c3c(OC)ncc(C(C)(C)O)c3n(C(c3ccccc3)C3CCC(F)(F)CC3)c2c1` (single isomer, unassigned) [Example 281, 2-{8-[(4,4-Difluorocyclohexyl)(phenyl)methyl]-13-methoxy-5-[4-(^2H3)methyl-1-methyl-1H-1,2,3-triazol-5-yl]-3,8,12-triazatricyclo[7.4.0.0^2,^7]trideca-1(9),2,4,6,10,12-hexaen-10-yl}propan-2-ol] the figure was less than 10 nM; with `Cc1nnn(C)c1-c1cnc2c3ccc(S(N)(=O)=O)nc3n([C@H](c3ccccc3)C3CCOCC3)c2c1` [Example 195, 5-(Dimethyl-1H-1,2,3-triazol-5-yl)-8-[(S)-oxan-4-yl(phenyl)methyl]-3,8,10-triazatricyclo[7.4.0.0^2,^7]trideca-1(9),2(7),3,5,10,12-hexaene-11-sulfonamide], less than 10 nM; with `Cc1nnn(C)c1-c1cnc2c3ccc(N4CCN(C5CCN(C)CC5)CC4)nc3n([C@H](c3ccccc3F)C3CCOCC3)c2c1` [Example 270, 5-(Dimethyl-1H-1,2,3-triazol-5-yl)-8-[(S)-(2-fluorophenyl)(oxan-4-yl)methyl]-11-[4-(1-methylpiperidin-4-yl)piperazin-1-yl]-3,8,10-triazatricyclo[7.4.0.0^2,^7]trideca-1(13),2(7),3,5,9,11-hexaene], less than 1 nM.
With `Cc1noc(C)c1-c1cnc2c3c(OCC4CC4)ncc(S(C)(=O)=O)c3n([C@H](c3ccccc3)C3CCOCC3)c2c1` [Example 103, 13-(Cyclopropylmethoxy)-5-(dimethyl-1,2-oxazol-4-yl)-10-methanesulfonyl-8-[(S)-oxan-4-yl(phenyl)methyl]-3,8,12-triazatricyclo[7.4.0.0^2,^7]trideca-1(13),2(7),3,5,9,11-hexaene], the half-maximal inhibitory concentration (IC50) was less than 10 nM.
Next, `[2H]C([2H])([2H])c1nnn(C)c1-c1cnc2c3c(OC)nc(N(C)CCNC)cc3n([C@H](c3ncccc3F)C3CCOCC3)c2c1` [Example 313, 8-[(S)-(3-Fluoropyridin-2-yl)(oxan-4-yl)methyl]-13-methoxy-N-methyl-5-[4-(^2H3)methyl-1-methyl-1H-1,2,3-triazol-5-yl]-N-[2-(methylamino)ethyl]-3,8,12-triazatricyclo[7.4.0.0^2,^7]trideca-1(9),2(7),3,5,10,12-hexaen-11-amine]: less than 1500 nM; `COc1nc(C(C)(C)O)cc2c1c1ncc(-c3c(C)nnn3C)cc1n2[C@@H](c1ncccc1F)C1CCOCC1` [Example 311, 2-{8-[(R)-(3-Fluoropyridin-2-yl)(oxan-4-yl)methyl]-13-methoxy-5-[4-(^2H3)methyl-1-methyl-1H-1,2,3-triazol-5-yl]-3,8,12-triazatricyclo[7.4.0.0^2,^7]trideca-1(9),2(7),3,5,10,12-hexaen-11-yl}propan-2-ol]: less than 10 nM.
Next, `[2H]C([2H])([2H])c1nnn(C)c1-c1cnc2c3cnc(C(C)=O)cc3n([C@H](c3ccccc3F)C3CCOCC3)c2c1` [Example 333]: less than 10 nM.
As to `[2H]C([2H])([2H])c1nnn(C)c1-c1cnc2c3ccc(C4CCS(=O)(=O)CC4)nc3n([C@H](c3ccccc3)C3CCOCC3)c2c1` [Example 205, 4-{5-[4-(^2H3)Methyl-1-methyl-1H-1,2,3-triazol-5-yl]-8-[(S)-oxan-4-yl(phenyl)methyl]-3,8,10-triazatricyclo[7.4.0.0^2,^7]trideca-1(9),2(7),3,5,10,12-hexaen-11-yl}-1λ^6-thiane-1,1-dione], the IC50 was less than 10 nM.
Next, `COc1ncc(S(C)(=O)=O)c2c1c1ncc(-c3c(C)noc3C)cc1n2[C@H](c1ccccc1F)C1CCOCC1` [Example 48, 5-(Dimethyl-1,2-oxazol-4-yl)-8-[(S)-(2-fluorophenyl)(oxan-4-yl)methyl]-10-methanesulfonyl-13-methoxy-3,8,12-triazatricyclo[7.4.0.0^2,^7]trideca-1(13),2(7),3,5,9,11-hexaene]: less than 1 nM; `COc1ncc(S(C)(=O)=O)c2c1c1ncc(-c3c(C)noc3C)cc1n2C(c1ccccc1)C1CCC(F)(F)CC1` (single isomer, unassigned) [Example 88, 8-[(4,4-Difluorocyclohexyl)(phenyl)methyl]-5-(dimethyl-1,2-oxazol-4-yl)-10-methanesulfonyl-13-methoxy-3,8,12-triazatricyclo[7.4.0.0^2,^7]trideca-1(13),2(7),3,5,9,11-hexaene]: less than 10 nM.
With `Cc1noc(C)c1-c1cnc2c3c(NS(=O)(=O)C(C)C)ncc(S(C)(=O)=O)c3n([C@H](c3ccccc3)C3CCOCC3)c2c1` [Example 100, N-[5-(Dimethyl-1,2-oxazol-4-yl)-10-methanesulfonyl-8-[(S)-oxan-4-yl(phenyl)methyl]-3,8,12-triazatricyclo[7.4.0.0^2,^7]trideca-1(13),2(7),3,5,9,11-hexaen-13-yl]propane-2-sulfonamide] the figure was less than 10 nM; with `COc1ncc(C(=O)N2CC(F)C2)c2c1c1ncc(-c3c(C)nnn3C)cc1n2[C@H](c1ccccc1)C1CCOCC1` [Example 137, 5-(dimethyl-1H-1,2,3-triazol-5-yl)-10-(3-fluoroazetidine-1-carbonyl)-13-methoxy-8-[(S)-oxan-4-yl(phenyl)methyl]-3,8,12-triazatricyclo[7.4.0.0^2,^7]trideca-1(9),2,4,6,10,12-hexaene], less than 10 nM.
With `[2H]C([2H])([2H])c1nnn(C)c1-c1cnc2c3cnc(C(C)(C)O)cc3n([C@H](c3ccccc3F)C3CCOCC3)c2c1` [Example 332], the half-inhibitory concentration (IC50) is less than 10 nM.
As to `Cc1cc([C@H](C2CCOCC2)n2c3cc(-c4c(C)nnn4C)ncc3c3ncc(C(C)(C)O)cc32)no1` [Example 365], the IC50 was less than 10 nM.
With `CCc1nnn(C)c1-c1cnc2c3cnc(C(C)(C)O)cc3n([C@H](c3ccccc3)C3CCOCC3)c2c1` [Example 340, 2-[5-(4-Ethyl-1-methyl-1H-1,2,3-triazol-5-yl)-8-[(S)-oxan-4-yl(phenyl)methyl]-3,8,12-triazatricyclo[7.4.0.0^2,^7]trideca-1(9),2(7),3,5,10,12-hexaen-11-yl]propan-2-ol] the figure was less than 10 nM; with `[2H]C([2H])([2H])c1nnn(C)c1-c1cnc2c3c(OC(C)C)ncc(S(C)(=O)=O)c3n([C@H](c3ccc(F)cc3)C3CCOCC3)c2c1` [Example 79, 8-[(S)-(4-Fluorophenyl)(oxan-4-yl)methyl]-10-methanesulfonyl-5-[4-(^2H3)methyl-1-methyl-1H-1,2,3-triazol-5-yl]-13-(propan-2-yloxy)-3,8,12-triazatricyclo[7.4.0.0^2,^7]trideca-1(13),2(7),3,5,9,11-hexaene], less than 1 nM; with `Cc1nnn(C)c1-c1cnc2c3c(O)nc(C(C)(C)O)cc3n([C@@H](c3ncccc3F)C3CCOCC3)c2c1` [Example 312, 8-[(R)-(3-Fluoropyridin-2-yl)(oxan-4-yl)methyl]-11-(2-hydroxypropan-2-yl)-5-[4-(^2H3)methyl-1-methyl-1H-1,2,3-triazol-5-yl]-3,8,12-triazatricyclo[7.4.0.0^2,^7]trideca-1(9),2(7),3,5,10,12-hexaen-13-ol], less than 10 nM.
Next, `[2H]C([2H])([2H])c1nnn(C)c1-c1cnc2c3cnc(C(C)(C)O)cc3n([C@H](c3ccccc3)C3CCOCC3)c2c1` [Example 284, 2-{5-[4-(^2H3)Methyl-1-methyl-1H-1,2,3-triazol-5-yl]-8-[(S)-oxan-4-yl(phenyl)methyl]-3,8,12-triazatricyclo[7.4.0.0^2,^7]trideca-1(9),2(7),3,5,10,12-hexaen-11-yl}propan-2-ol]: less than 1 nM.

The values above are taken from patent US9725449B2, “Tricyclic compounds as anticancer agents” (BRISTOL-MYERS SQUIBB COMPANY, priority 2015, dated 2017).
